The values that follow are results of earlier work, collected in patent publication US20210319872A1, “DRUG AND DEVICE COMBINATION PRODUCTS WITH IMPROVED SAFETY AND EFFICACY PROFILES” (priority 2016, published 2021).

The conditions of the series: in vivo.

On to `COc1ccc(-n2nc(C(N)=O)c3c2C(=O)N(c2ccc(N4CCCCC4=O)cc2)CC3)cc1` [Apixaban (Eliquis)], for which the Bleeding gums entry was “Gastrointestinal: Bleeding gums (Less than 0.1% to 1.4%)”; the “Bleeding, Major” value is on record as “prophylaxis, 2.88% to 4.83%), Bleeding, Major (0.1% to 2.13%),”; the Conjunctival hemorrhage entry was “Ophthalmic: Conjunctival hemorrhage (0.1% to less than 1%),”; the Contusion entry is reported as “Dermatologic: Contusion (1.4% to 2.2%)”. For the same compound, the Hematochezia result was “pulmonary embolism, 0.1% to less than 1%), Hematochezia (0.1%”; the Hematoma entry is “Hematologic: Hematoma (DVT, 1.3% to 1.5%)”; the Hemorrhage entry was “Hemorrhage (0.1% to 1.4%), Hemorrhage, Operative (DVT”; the Hemorrhage of muscle result was “Musculoskeletal: Hemorrhage of muscle (Less than 0.1% to less”. Also, the “Hemorrhage, Operative” value was “prophylaxis, 0.1% to less than 1%)”; the Hypersensitivity reaction was less than 1%); the Intracranial hemorrhage entry was “fibrillation, 0.33% to 0.34%/year), Non-traumatic spinal subdural”; the Intraocular hemorrhage entry is reported as “Intraocular hemorrhage (Less than 0.1% to less than 1%), Retinal”. Moreover, the “Liver function tests abnormal” value is 0.1% to less than 1%), Serum bilirubin raised (DVT prophylaxis,; the Menorrhagia entry is “Reproductive: Menorrhagia (1.4%)”; the Retinal hemorrhage result was “hemorrhage (0.1% to less than 1%)”; the Serum bilirubin raised is recorded as 0.1% to less than 1%).
`O=C1CCc2ccc(OCCCCN3CCN(c4cccc(Cl)c4Cl)CC3)cc2N1` [Aripiprazole (Abilify)]: the Akathisia entry is “Neurologic: Akathisia (2% to 25%), Dizziness (4% to 10%),”; the Angioedema entry is “Other: Angioedema (0.1% to less than 1%), Increased body”; the Anxiety entry is recorded as “Psychiatric: Anxiety (4% to 17%), Restlessness (2% to 12%)”; the Cardiorespiratory arrest result is given as “Cardiovascular: Cardiorespiratory arrest (0.1% to 1%),”. In addition, the Cardiorespiratory failure entry is on record as “Cardiorespiratory failure (0.1% to 1%), Myocardial infarction”; the Constipation entry was “Gastrointestinal: Constipation (5% to 11%), Nausea (8% to 15%),”; the Diabetic ketoacidosis entry is recorded as “Endocrine metabolic: Diabetic ketoacidosis (Less than 0.1%)”; the Dizziness result is recorded as “Neurologic: Akathisia (2% to 25%), Dizziness (4% to 10%),”. The Extrapyramidal sign entry is “Extrapyramidal sign (2% to 27.3%), Headache (10% to 27%),”; the Fatigue result is given as “Other: Fatigue (2% to 17%)”; the Headache result is “Extrapyramidal sign (2% to 27.3%), Headache (10% to 27%),”; the Leukopenia result is “Hematologic: Agranulocytosis, Leukopenia (Less than 1%),”. The Myocardial infarction result was “(0.1% to 1%), Prolonged QT interval (0.1% to 1%)”; the Nausea result was “Gastrointestinal: Constipation (5% to 11%), Nausea (8% to 15%),”; the Neutropenia result is listed as “Neutropenia (Less than 1%)”; the Pancreatitis result is on record as “Gastrointestinal: Pancreatitis (Less than 0.1%)”. The “Prolonged QT interval” value is given as “(0.1% to 1%), Prolonged QT interval (0.1% to 1%)”; the Restlessness result is reported as “Psychiatric: Anxiety (4% to 17%), Restlessness (2% to 12%)”; the Rhabdomyolysis entry is on record as “Musculoskeletal: Rhabdomyolysis (Less than 0.1%)”; the Sedated entry is recorded as “Insomnia (8% to 18%), Sedated (3% to 21%), Somnolence (6% to”. The Seizure result is “Neurologic: Cerebrovascular accident, Seizure (Up to 0.3%),”; the Tremor is 26.3%), Tremor (2% to 11.8%); the Vomiting result was “Vomiting (3% to 11%)”.
With `CC(C)NCC(O)COc1ccc(CC(N)=O)cc1` (stereo not shown) [Atenolol (Tenormin)], the Bradyarrhythmia entry is reported as “Cardiovascular: Bradyarrhythmia (3% to 18%), Cold extremities”; the Cold extremities result is on record as “(12%), Hypotension (4% to 25%)”; the Depression entry is “Psychiatric: Depression (up to 12%)”; the Dizziness result is “Neurologic: Dizziness (13%)”. In addition, the Fatigue entry was “Other: Fatigue (up to 26%)”; the Hypotension entry is “(12%), Hypotension (4% to 25%)”; the Pulmonary embolism result is listed as “Respiratory: Pulmonary embolism (1.2%)”.
